Results from the supplement of paper PMC10307832.

Experiments:
Assay in all cases: relative viability (nuclei count vs DMSO), 5 days (fraction); higher = more cells survive
Dabrafenib = compound: CC(C)(C)c1nc(-c2cccc(NS(=O)(=O)c3c(F)cccc3F)c2F)c(-c2ccnc(N)n2)s1 [Dabrafenib]
Summary of the method: (§1)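 A plate was accepted only when its control CV was below 25% and the cells had doubled at least once. Viability is defined from nuclear counts as treated wells divided by vehicle wells, with the median taken across plates. That median covers lung cancer cell lines grown in 1536-well plates, dosed by pinning at five √10-spaced library-drug concentrations, and counted in MetaXpress from 4× Hoechst images after 5 days.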

VX-702 = compound: NC(=O)c1ccc(N(C(N)=O)c2c(F)cccc2F)nc1-c1ccc(F)cc1F [VX-702]
Summary of the method: as §1

Dabrafenib + Navitoclax = compound: CC(C)(C)c1nc(-c2cccc(NS(=O)(=O)c3c(F)cccc3F)c2F)c(-c2ccnc(N)n2)s1 [Dabrafenib] + CC1(C)CCC(c2ccc(Cl)cc2)=C(CN2CCN(c3ccc(C(=O)NS(=O)(=O)c4ccc(N[C@H](CCN5CCOCC5)CSc5ccccc5)c(S(=O)(=O)C(F)(F)F)c4)cc3)CC2)C1 [Navitoclax] (partner 0.5 µM)
Summary of the method: (§2)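 Relative viability divides the nuclei count in treated wells by that in vehicle wells. Lung cancer cell lines were seeded in 1536-well plates, dosed by pin tool the next day, and fixed and stained after 5 days in one step with final 0.05% Triton X-100, 1% formaldehyde and 1 ug/ml Hoechst. Dosing was a single drug or a fixed anchor-drug dose plus five library-drug doses (not always all listed) in √10 steps, and values are medians of duplicate plates imaged at 4×.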

Dabrafenib + Foretinib = compound: CC(C)(C)c1nc(-c2cccc(NS(=O)(=O)c3c(F)cccc3F)c2F)c(-c2ccnc(N)n2)s1 [Dabrafenib] + COc1cc2c(Oc3ccc(NC(=O)C4(C(=O)Nc5ccc(F)cc5)CC4)cc3F)ccnc2cc1OCCCN1CCOCC1 [Foretinib] (partner 0.25 µM)
Summary of the method: as §2

Cell Line | relative viability (Dabrafenib; 0.009487 µM) | relative viability (Dabrafenib; 0.03 µM) | relative viability (Dabrafenib; 0.09487 µM) | relative viability (Dabrafenib; 0.3 µM) | relative viability (VX-702; 0.02 µM) | relative viability (VX-702; 0.2 µM) | relative viability (VX-702; 0.6325 µM) | relative viability (VX-702; 2 µM) | relative viability (Dabrafenib + Navitoclax; first compound 0.009487 µM) | relative viability (Dabrafenib + Navitoclax; first compound 0.03 µM) | relative viability (Dabrafenib + Navitoclax; first compound 0.09487 µM) | relative viability (Dabrafenib + Navitoclax; first compound 0.3 µM) | relative viability (Dabrafenib + Foretinib; first compound 0.009487 µM) | relative viability (Dabrafenib + Foretinib; first compound 0.03 µM) | relative viability (Dabrafenib + Foretinib; first compound 0.09487 µM) | relative viability (Dabrafenib + Foretinib; first compound 0.3 µM) | relative viability (Dabrafenib; 0.003 µM) | relative viability (Dabrafenib + Navitoclax; first compound 0.003 µM) | relative viability (Dabrafenib + Foretinib; first compound 0.003 µM)
NCI-H1734 | 1.08 | 0.716 | 0.765 | 0.891 | 1.04 | 0.919 | 0.876 | 0.703 | 0.835 | 0.703 | 0.766 | 0.85 | 0.963 | 0.73 | 0.811 | 0.965 |  |  | 
NCI-H1755 | 1.03 | 0.875 | 0.94 | 0.971 | 1.01 | 1.03 | 1.1 | 0.998 | 0.938 | 0.75 | 0.964 | 0.997 | 0.894 | 0.767 | 0.876 | 0.911 | 0.99 | 0.949 | 0.879
NCI-H1793 | 1.29 |  | 0.761 | 1.05 | 0.916 | 0.79 | 0.968 | 0.844 | 0.599 | 0.306 | 0.445 | 0.669 | 0.93 |  |  | 0.598 |  | 0.463 | 
NCI-H1915 | 1.04 | 0.823 | 0.523 | 0.579 | 1.08 | 1 | 1 | 1.05 | 0.768 | 0.733 | 0.732 | 0.746 | 1.08 | 1.09 | 0.87 | 0.949 | 1.03 | 0.777 | 1.2
NCI-H1944 | 0.997 | 0.841 | 0.952 | 0.985 | 0.941 | 0.985 | 1.01 | 0.443 | 1.03 | 0.971 | 0.968 | 0.899 | 0.887 | 0.948 | 0.827 | 0.85 | 0.911 | 0.954 | 0.832
NCI-H1975 | 0.982 | 0.925 | 0.778 | 0.854 | 0.97 | 0.923 | 1.08 | 1.22 | 1.11 | 0.954 | 1 | 1.18 | 0.907 | 0.922 | 0.849 | 0.957 | 0.936 | 1.2 | 0.965
NCI-H1993 | 0.945 | 0.966 | 1.12 | 1.4 | 0.876 | 0.874 | 1.04 | 0.862 | 1.04 | 0.902 | 1.08 | 1.17 | 0.852 | 0.64 | 0.71 | 0.901 | 0.913 | 0.834 | 0.762
NCI-H2009 | 0.974 | 0.894 | 0.625 | 0.628 | 1.23 | 1.15 | 1.2 | 1.26 | 1.02 | 1.06 | 0.909 | 0.841 | 1.18 | 1.24 | 0.995 | 0.911 | 0.883 | 1.11 | 1.21
NCI-H2023 | 1.01 | 1.01 | 0.948 | 1.07 | 1.03 | 1.04 | 1.01 | 1.18 | 1.03 | 0.995 | 0.915 | 1.05 | 0.922 | 0.796 | 0.877 | 1.02 | 0.877 | 1.06 | 0.866
NCI-H2085 | 1.06 | 1 | 0.999 | 1.09 | 1.06 | 1.05 | 1 | 0.99 | 1.14 | 1.16 | 1.1 | 1.09 | 0.975 | 0.981 | 0.899 | 1.08 | 0.846 | 1.15 | 0.984
NCI-H2087 | 1.08 | 0.853 | 0.687 | 0.898 | 1.17 | 1.01 | 0.997 | 1.08 | 0.881 | 0.893 | 0.842 | 0.892 | 1.04 | 0.988 | 0.959 | 1.09 |  | 0.947 | 
NCI-H2126 | 1.06 | 0.994 | 1.02 | 1.08 | 1.03 | 0.963 | 1.02 | 0.954 | 0.887 | 0.823 | 0.866 | 0.956 | 1.22 | 1.15 | 1 | 1.43 | 0.875 | 0.779 | 1.15
NCI-H2170 | 1.01 | 0.906 | 0.815 | 0.895 | 1.09 | 0.946 | 1.05 | 1 | 0.704 | 0.463 | 0.641 | 0.594 | 0.539 | 0.961 | 1.01 | 1.11 | 0.991 | 0.702 | 1.03
NCI-H2228 | 0.987 | 0.994 | 0.902 | 0.944 | 1.11 | 1.06 | 0.84 | 1.08 | 0.953 | 0.693 | 0.854 | 0.757 | 0.95 | 0.797 | 0.749 | 0.97 | 0.864 | 0.543 | 
NCI-H2347 | 1.07 | 0.877 | 0.811 | 0.89 | 1.05 | 1.1 | 1.04 | 1.01 | 0.92 | 0.733 | 0.766 | 0.752 | 1.01 |  |  | 0.932 |  | 0.536 | 
NCI-H2405 | 0.931 | 0.7 | 0.898 | 0.961 | 1.09 | 0.941 | 0.978 | 1.12 | 0.697 |  | 0.734 | 0.73 | 0.985 |  | 0.949 | 1.07 |  |  | 
NCI-H3122 | 1.05 | 1.09 | 0.991 | 1.06 | 1.01 | 0.979 | 1 | 1 | 1.01 | 1.06 | 0.991 | 1.08 | 0.959 | 0.935 | 0.904 | 0.97 | 0.981 | 1.04 | 1.04
